Reference: patent publication US8877707B2, “Inhibitors of HCV NS5A” (Presidio Pharmaceuticals, Inc., priority 2010, dated 2014)

tested on: HCV genotype 1b replicon in Huh 7 cells; assay: HCV replicon assay (1b_Huh-Luc/Neo-ET cell line, luciferase readout); format: cell-based; settings: Hepatitis C virus; Table 1; genotype 1b replicon, Huh 7 cells, 72 h, luciferase; read-out: Inhibition of HCV genotype 1b
Procedure: Biological activity of the compounds of the invention was determined using an HCV replicon assay. The 1b_Huh-Luc/Neo-ET cell line persistently expressing a bicistronic genotype 1b replicon in Huh 7 cells was obtained from ReBLikon GMBH. This cell line was used to test compound inhibition using luciferase enzyme activity readout as a measurement of compound inhibition of replicon levels.
On Day 1 (the day after plating), each compound is added in triplicate to the cells. Plates incubated for 72 h prior to running the luciferase assay. Enzyme activity was measured using a Bright-Glo Kit (cat. number E2620) manufactured by Promega Corporation. The following equation was used to generate a percent control value for each compound. % Control=(Average Compound Value/Average Control)*100
The EC50 value was determined using GraphPad Prism and the following equation: Y=Bottom+(Top−Bottom)/(1+10^((Log IC50−X)*HillSlope))
EC50 values of compounds are repeated several times in the replicon assay.

SMILES	EC50
COC(=O)N[C@H](C(=O)N1CCC[C@H]1c1nc(-c2cnc3cc(-c4ccc(-c5cnc([C@@H]6CCCN6C(=O)[C@H](NC(=O)OC)c6ccccc6)[nH]5)cc4)ccc3c2)c[nH]1)C1CCOCC1 [compound 71]	< 1 nM
COC(=O)N[C@H](C(=O)N1CCC[C@H]1c1nc(-c2cnc3cc(-c4ccc(-c5cnc([C@@H]6CCCN6C(=O)[C@H](NC(=O)OC(C)(C)C)c6ccccc6)[nH]5)cc4)ccc3c2)c[nH]1)C1CCOCC1 [compound 72]	< 1 nM
COC(=O)N[C@H](C(=O)N1CCC[C@H]1c1nc(-c2cnc3cc(-c4ccc(-c5cnc([C@@H]6CCCN6C(=O)[C@@H](NC(=O)OC)C6CCOCC6)[nH]5)cc4)ccc3c2)c[nH]1)C1CCOCC1 [compound 73]	< 1 nM
COC(=O)N[C@H](C(=O)N1CCC[C@H]1c1nc(-c2cnc3cc(-c4ccc(-c5cnc([C@@H]6CCCN6C(=O)[C@@H](NC(=O)OC)C(C)C)[nH]5)cn4)ccc3c2)c[nH]1)C(C)C [compound 74]	< 1 nM
COC(=O)N[C@H](C(=O)N1CCC[C@H]1c1nc(-c2cnc3cc(-c4ccc(-c5cnc([C@@H]6CCCN6C(=O)[C@@H](NC(=O)OC)C6CCOCC6)[nH]5)cn4)ccc3c2)c[nH]1)C1CCOCC1 [compound 75]	< 1 nM
COC(=O)N[C@H](C(=O)N1CCC[C@H]1c1nc(-c2ccc3[nH]c(-c4ccc(-c5cnc([C@@H]6CCCN6C(=O)[C@@H](NC(=O)OC)C(C)C)[nH]5)cc4)cc(=O)c3c2)c[nH]1)C(C)C [compound 76]	< 1 nM
COC(=O)N[C@@H](C(=O)N1CCC[C@H]1c1nc(-c2ccc3[nH]c(-c4ccc(-c5cnc([C@@H]6CCCN6C(=O)[C@H](NC(=O)OC)c6ccccc6)[nH]5)cc4)cc(=O)c3c2)c[nH]1)c1ccccc1 [compound 77]	10 to 999 nM
COC(=O)N[C@@H](C(=O)N1CCC[C@H]1c1nc(-c2ccc3nc(-c4ccc(-c5cnc([C@@H]6CCCN6C(=O)[C@H](NC(=O)OC)c6ccccc6)[nH]5)cc4)cc(OC)c3c2)c[nH]1)c1ccccc1 [compound 78]	< 1 nM
COC(=O)N[C@H](C(=O)N1CCC[C@H]1c1nc(-c2ccc3nc(-c4ccc(-c5cnc([C@@H]6CCCN6C(=O)[C@@H](NC(=O)OC)C(C)C)[nH]5)cc4)cc(OC)c3c2)c[nH]1)C(C)C [compound 79]	< 1 nM
COC(=O)N[C@@H](C(=O)N1CCC[C@H]1c1nc(-c2cnc3cc(-c4ccc(-c5cnc([C@@H]6CCCN6C(=O)[C@H](NC(=O)OC)c6ccccc6)[nH]5)cn4)ccc3c2)c[nH]1)c1ccccc1 [compound 80]	< 1 nM
COC(=O)N[C@H](C(=O)N1CCC[C@H]1c1ncc(-c2ccc(-c3ccc4cc(-c5c[nH]c([C@@H]6CCCN6C(=O)[C@H](NC(=O)OC6CCOCC6)c6ccccc6)n5)cnc4c3)nc2)[nH]1)C(C)C [compound 81]	< 1 nM
COC(=O)N[C@H](C(=O)N1CCC[C@H]1c1ncc(-c2ccc(-c3ccc4cc(-c5c[nH]c([C@@H]6CCCN6C(=O)[C@H](NC(=O)OC(C)(C)C)c6ccccc6)n5)cnc4c3)nc2)[nH]1)C(C)C [compound 82]	< 1 nM
COC(=O)N[C@H](C(=O)N1CCC[C@H]1c1nc(-c2ccc3cc(-c4ccc(-c5cnc([C@@H]6CCCN6C(=O)[C@@H](NC(=O)OC)C(C)C)[nH]5)nc4)ccc3c2)c[nH]1)C(C)C [compound 83]	< 1 nM
COC(=O)N[C@H](C(=O)N1CCC[C@H]1c1nc(-c2ccc3cc(-c4ccc(-c5cnc([C@@H]6CCCN6C(=O)[C@@H](NC(=O)OC)C6CCOCC6)[nH]5)nc4)ccc3c2)c[nH]1)C(C)C [compound 84]	< 1 nM
COC(=O)N[C@H](C(=O)N1CCC[C@H]1c1nc(-c2ccc3cc(-c4ccc(-c5cnc([C@@H]6CCCN6C(=O)[C@@H](NC(=O)OC)C(C)C)[nH]5)cc4C)ccc3c2)c[nH]1)C(C)C [compound 85]	< 1 nM
COC(=O)N[C@H](C(=O)N1CCC[C@H]1c1nc(-c2ccc3cc(-c4ccc(-c5cnc([C@@H]6CCCN6C(=O)[C@@H](NC(=O)OC)C6CCOCC6)[nH]5)cc4C)ccc3c2)c[nH]1)C(C)C [compound 86]	< 1 nM
COC(=O)N[C@H](C(=O)N1CCC[C@H]1c1ncc(-c2ccc(-c3ccc4cc(-c5c[nH]c([C@@H]6CCCN6C(=O)[C@H](NC(=O)OC)c6ccccc6)n5)ccc4c3)c(C)c2)[nH]1)C(C)C [compound 87]	< 1 nM
COC(=O)N[C@H](C(=O)N1CCC[C@H]1c1nc(-c2cnc3cc(-c4ccc(-c5cnc([C@@H]6CCCN6C(=O)[C@H](NC(=O)OC6CCOCC6)c6ccccc6)[nH]5)cc4)ccc3c2)c[nH]1)C(C)C [compound 88]	< 1 nM
COC(=O)N[C@H](C(=O)N1CCC[C@H]1c1nc(-c2cnc3cc(-c4ccc(-c5cnc([C@@H]6CCCN6C(=O)[C@H](NC(=O)OC6CCOCC6)c6ccccc6)[nH]5)cc4)ccc3c2)c[nH]1)C1CCOCC1 [compound 89]	< 1 nM
COC(=O)N[C@H](C(=O)N1CCC[C@H]1c1ncc(-c2ccc(-c3ccc4cc(-c5c[nH]c([C@@H]6CCCN6C(=O)[C@H](NC(=O)OC)c6ccccc6)n5)ccc4n3)cc2)[nH]1)C1CCOCC1 [compound 90]	< 1 nM

SMILES	EC50
COC(=O)N[C@H](C(=O)N1CCC[C@H]1c1ncc(-c2ccc(-c3ccc4cc(-c5c[nH]c([C@@H]6CCCN6C(=O)[C@H](NC(=O)OC(C)(C)C)c6ccccc6)n5)ccc4n3)cc2)[nH]1)C1CCOCC1 [compound 91]	< 1 nM
COC(=O)N[C@H](C(=O)N1CCC[C@H]1c1ncc(-c2ccc(-c3ccc4cc(-c5c[nH]c([C@@H]6CCCN6C(=O)[C@H](NC(=O)OC6CCOCC6)c6ccccc6)n5)ccc4n3)cc2)[nH]1)C1CCOCC1 [compound 92]	< 1 nM
COC(=O)N[C@H](C(=O)N1CCC[C@H]1c1nc(-c2cnc3cc(-c4ccc(-c5cnc([C@@H]6CCCN6C(=O)[C@@H](NC(=O)OC)C(C)C)[nH]5)nc4)ccc3c2)c[nH]1)C(C)C [compound 93]	< 1 nM
COC(=O)N[C@H](C(=O)N1CCC[C@H]1c1ncc(-c2ccc(-c3ccc4cc(-c5c[nH]c([C@@H]6CCCN6C(=O)[C@H](NC(=O)OC)c6ccccc6)n5)cnc4c3)cn2)[nH]1)C(C)C [compound 94]	< 1 nM
COC(=O)N[C@H](C(=O)N1CCC[C@H]1c1ncc(-c2ccc(-c3ccc4cc(-c5c[nH]c([C@@H]6CCCN6C(=O)[C@@H](NC(=O)OC)C6CCOCC6)n5)cnc4c3)cn2)[nH]1)C(C)C [compound 95]	< 1 nM
COC(=O)N[C@H](C(=O)N1CCC[C@H]1c1nc(-c2ccc3nc(-c4ccc(-c5cnc([C@@H]6CCCN6C(=O)[C@@H](NC(=O)OC)C(C)C)[nH]5)cc4F)ccc3c2)c[nH]1)C(C)C [compound 96]	< 1 nM
COC(=O)N[C@@H](C(=O)N1CCC[C@H]1c1nc(-c2ccc3nc(-c4ccc(-c5cnc([C@@H]6CCCN6C(=O)[C@H](NC(=O)OC)c6ccccc6)[nH]5)cc4F)ccc3c2)c[nH]1)c1ccccc1 [compound 97]	< 1 nM
COC(=O)N[C@H](C(=O)N1CCC[C@H]1c1nc(-c2ccc3nc(-c4ccc(-c5cnc([C@@H]6CCCN6C(=O)[C@@H](NC(=O)OC)C6CCOCC6)[nH]5)cc4F)ccc3c2)c[nH]1)C1CCOCC1 [compound 98]	< 1 nM
COC(=O)N[C@H](C(=O)N1CCC[C@H]1c1nc(-c2ccc3cc(-c4ccc(-c5cnc([C@@H]6CCCN6C(=O)[C@H](NC(=O)OC)c6ccccc6)[nH]5)cc4)ccc3c2)c[nH]1)C1CCOCC1 [compound 99]	< 1 nM
COC(=O)N[C@H](C(=O)N1CCC[C@H]1c1nc(-c2ccc3cc(-c4ccc(-c5cnc([C@@H]6CCCN6C(=O)[C@H](NC(=O)OC)c6ccccc6)[nH]5)cc4)ncc3c2)c[nH]1)C1CCOCC1 [compound 100]	< 1 nM
COC(=O)N[C@H](C(=O)N1CCC[C@H]1c1ncc(-c2ccc(-c3cc4ccc(-c5c[nH]c([C@@H]6CCCN6C(=O)[C@H](NC(=O)OC)c6ccccc6)n5)cc4cn3)cc2)[nH]1)C1CCOCC1 [compound 101]	< 1 nM
COC(=O)N[C@H](C(=O)N1CCC[C@H]1c1nc(-c2ccc3cc(-c4ccc(-c5cnc([C@@H]6CCCN6C(=O)[C@@H](NC(=O)OC)C(C)C)[nH]5)cc4)ccc3n2)c[nH]1)C(C)C [compound 102]	< 1 nM
COC(=O)N[C@H](C(=O)N1CCC[C@H]1c1ncc(-c2ccc(-c3ccc4nc(-c5c[nH]c([C@@H]6CCCN6C(=O)[C@H](NC(=O)OC)c6ccccc6)n5)ccc4c3)cc2)[nH]1)C(C)C [compound 103]	< 1 nM
COC(=O)N[C@H](C(=O)N1CCC[C@H]1c1ncc(-c2ccc(-c3ccc4cc(-c5c[nH]c([C@@H]6CCCN6C(=O)[C@@H](NC(=O)OC)C6CCOCC6)n5)ccc4c3)c(C)c2)[nH]1)C(C)C [compound 104]	< 1 nM
COC(=O)N[C@H](C(=O)N1CCC[C@H]1c1ncc(-c2ccc(-c3ccc4cc(-c5c[nH]c([C@@H]6CCCN6C(=O)[C@H](NC(=O)OC)c6ccccc6)n5)ccc4c3)cc2)[nH]1)C1CCOCC1 [compound 105]	< 1 nM
COC(=O)N[C@H](C(=O)N1CCC[C@H]1c1ncc(-c2ccc(-c3ccc4cc(-c5c[nH]c([C@@H]6CCCN6C(=O)[C@H](NC(=O)OC)c6ccccc6)n5)ccc4c3)c(F)c2)[nH]1)C1CCOCC1 [compound 106]	< 1 nM
COC(=O)N[C@H](C(=O)N1CCC[C@H]1c1nc(-c2ccc3nc(-c4ccc(-c5cnc([C@@H]6CCCN6C(=O)[C@H](NC(=O)OC)c6ccccc6)[nH]5)cc4F)ccc3c2)c[nH]1)C(C)C [compound 107]	< 1 nM
COC(=O)N[C@H](C(=O)N1CCC[C@H]1c1nc(-c2ccc3nc(-c4ccc(-c5cnc([C@@H]6CCCN6C(=O)[C@@H](NC(=O)OC)C6CCOCC6)[nH]5)c(F)c4)ccc3c2)c[nH]1)C1CCOCC1 [compound 108]	< 1 nM
COC(=O)N[C@@H](C(=O)N1CCC[C@H]1c1nc(-c2ccc3nc(-c4ccc(-c5cnc([C@@H]6CCCN6C(=O)[C@H](NC(=O)OC)c6ccccc6)[nH]5)c(F)c4)ccc3c2)c[nH]1)c1ccccc1 [compound 109]	< 1 nM
